# Measurements reported in US7094754B2, “Anti-aging and wound healing compounds” (Kimberly-Clark Worldwide, Inc., priority 2001, dated 2006).
# Experiments:
# [1] = molecular target: pro-MMP-9 (Homo sapiens, UniProt P14780); test: Anti-activation (splicing) assay, pro-MMP-9 with stromilysin, HPLC; format: biochemical; details: 0.5 μM or 1.0 μM peptide, 80 minute time course
# Experimental: FIG. 12 illustrates the conversion of pro-MMP-9 into N-terminal and C-terminal domains by stromilysin. […] At the times indicated, an aliquot was removed and subjected to HPLC. The pro-MMP peak area was integrated and was set to 100 percent for the zero time point sample.
# The assay measures how much proenzyme is converted into mature matrix metalloproteinase. Proenzyme pro-MMP-9 (100 μg) was mixed with 0.5 μg of stromilysin in PBS. The reaction was incubated at 35° C. Aliquots were removed from the reaction over an 80 minute time course. […] The zero (injection) time point was a single peak that elutes from the column in approximately 750 seconds. This peak reduces in size as a function of time, and two new peaks appear. The first peak elutes at approximately 800 seconds, and represents the mature form of MMP-9. The second peak elutes at approximately 1100 seconds, and corresponds to the N-terminal pro-domain fragment. Peak areas were determined by integrating over the elution profile, and the percent area changes were plotted.
# The first peak, eluting at approximately 700 seconds, is pro-MMP-9. As the splicing reaction proceeds, this peak decreases in intensity (as marked with the downwards arrow), and two new peaks appear. The first new peak, eluting at approximately 800 seconds, is mature and active MMP-9. The second new peak, eluting at approximately 1050 seconds, is the prodomain. […]
# [2] = test system: normal human dermal fibroblasts (Clonetics, CC-2509); test: Fibroblast proliferation assay; format: cell-based; details: 28 hours
# Experimental: A human skin fibroblast cell line (Clonetics, Walkersville, Md., normal human dermal fibroblasts, neonatal, catalog number CC-2509) was tested to ascertain whether exposure to a peptide of the invention would stimulate cellular proliferation. The proliferative response of the human skin fibroblast cell line to thel 9mer peptide (SEQ ID NO:11) was measured in a 96-well assay system using serum-free medium as a control. […] Plates were incubated for 24 hours at 37° C. in a humidified 5% CO2 atmosphere. After incubation, the medium was aspirated and the wells were rinsed twice with 100 μl of serum-free DMEM. […] In addition, 100 μl of vehicle (serum-free DMEM) was added to 10 wells as control. All wells were incubated for 28 hours at 37° C. in a humidified, 5% CO2 atmosphere. After incubation, 20 μl of Cell Titer 96 Aqueous One Solution was added to all wells. The plates were swirled gently and placed back in the incubator for 45 minutes and spectrophotometric absorbance was read at 490 nm. Results were analyzed statistically using one-way ANOVA.
# Sequence of pro-MMP-9 (P14780 20-707): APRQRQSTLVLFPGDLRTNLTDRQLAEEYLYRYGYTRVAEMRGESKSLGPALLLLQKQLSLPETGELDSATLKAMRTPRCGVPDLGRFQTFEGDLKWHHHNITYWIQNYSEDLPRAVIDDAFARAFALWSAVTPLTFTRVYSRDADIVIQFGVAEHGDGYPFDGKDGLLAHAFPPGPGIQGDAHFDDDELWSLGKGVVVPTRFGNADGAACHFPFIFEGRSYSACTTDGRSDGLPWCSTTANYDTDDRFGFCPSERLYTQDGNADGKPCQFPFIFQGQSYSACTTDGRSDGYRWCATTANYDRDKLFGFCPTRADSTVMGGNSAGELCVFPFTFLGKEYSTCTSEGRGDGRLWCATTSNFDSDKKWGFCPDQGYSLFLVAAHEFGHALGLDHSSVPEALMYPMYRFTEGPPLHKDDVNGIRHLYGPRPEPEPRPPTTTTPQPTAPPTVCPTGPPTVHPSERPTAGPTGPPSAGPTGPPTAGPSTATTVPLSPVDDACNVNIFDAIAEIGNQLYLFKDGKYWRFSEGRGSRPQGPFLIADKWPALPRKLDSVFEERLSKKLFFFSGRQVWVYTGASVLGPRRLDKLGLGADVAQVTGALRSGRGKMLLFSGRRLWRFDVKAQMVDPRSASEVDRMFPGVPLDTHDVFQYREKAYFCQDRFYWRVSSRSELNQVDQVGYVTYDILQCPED
smiles,measurement,setting,value
CC(C)[C@H](NC(=O)[C@H](CC(=O)O)NC(=O)[C@@H]1CCCN1C(=O)[C@H](CC(N)=O)NC(=O)CNC(=O)[C@H](CS)NC(=O)[C@H](CCCNC(=N)N)NC(=O)[C@@H]1CCCN1)C(=O)N[C@@H](C)C(=O)N[C@@H](CC(N)=O)C(=O)N[C@@H](Cc1ccc(O)cc1)C(=O)N[C@@H](CC(N)=O)C(=O)N[C@@H](Cc1ccccc1)C(=O)N[C@@H](Cc1ccccc1)C(=O)N1CCC[C@H]1C(=O)N[C@@H](CCCNC(=N)N)C(=O)N[C@@H](CCCCN)C(=O)N1CCC[C@H]1C(=O)N[C@@H](CCCCN)C(=O)O [19-mer],conversion of pro-MMP-9 into prodomain and active enzyme by stromilysin,[1],prevents the conversion of pro-MMP-9 into the prodomain and the active enzyme
same,fibroblast growth (OD 490 nm) versus control,[2]; 1×10^−4 M,even greater cell growth
same,fibroblast growth (OD 490 nm) versus control,[2]; 1×10^−5 M,significantly greater cell density
same,fibroblast growth (OD 490 nm) versus control,[2]; 1×10^−6 M,a small amount of cell proliferation
